System: Onchocerca gutturosa Adult Male Worms
Assay: Onchocerciasis in vitro screening model, worm motility score
Type: cell-based
Settings: Onchocerca gutturosa; Table 1 O. gutturosa; levels A/B/C; motility or MTT readout not specified; read-out: O. gutturosa activity level (IC50 or MED)

Compound | IC50
Cc1cccnc1Nc1nc(-c2ccc(C3CCN(C)CC3)cn2)ns1 [Compound 48, 3-(5-(1-methyl-piperidin-4-yl)pyridin-2-yl)-N-(3-methylpyridin-2-yl)-1,2,4-thiadiazol-5-amine] | 500 to 5000 nM
Cc1cccnc1-c1nsc(Nc2ccc(C3CCN(C)CC3)cn2)n1 [Compound 49, N-(5-(1-methyl-piperidin-4-yl)pyridin-2-yl)-3-(3-methylpyridin-2-yl)-1,2,4-thiadiazol-5-amine] | 500 to 5000 nM
COc1ccc(-c2nsc(Nc3ccc(C4CCN(C)CC4)cn3)n2)nc1 [Compound 50, 3-(5-methoxy-pyridin-2-yl)-N-(5-(1-methyl-piperidin-4-yl)pyridin-2-yl)-1,2,4-thiadiazol-5-amine] | 500 to 5000 nM
Cc1cccnc1-c1nsc(Nc2ccc(N3CCCC3)cn2)n1 [Compound 51, 3-(3-methyl-pyridin-2-yl)-N-(5-(pyrrolidin-1-yl)pyridin-2-yl)-1,2,4-thiadiazol-5-amine] | < 200 nM
Cc1cccnc1Nc1nc(-c2ccc(OC(F)(F)F)cn2)ns1 [Compound 52, N-(3-methyl-pyridin-2-yl)-3-(5-(trifluoro-methoxy)pyridin-2-yl)-1,2,4-thiadiazol-5-amine] | < 200 nM
CNc1cccnc1Nc1nc(-c2ccc(OC3CCN(C)CC3)cn2)ns1 [Compound 53, N3-methyl-N2-(3-(5-(1-methyl-piperidin-4-yloxy)pyridin-2-yl)-1,2,4-thiadiazol-5-yl) pyridine-2,3-diamine] | 200 to 500 nM
CC(C)Oc1ccc(-c2nsc(Nc3ncccc3C(F)(F)F)n2)nc1 [Compound 54, 3-(5-isopropoxy-pyridin-2-yl)-N-(3-(trifluoromethyl)pyridin-2-yl)-1,2,4-thiadiazol-5-amine] | < 200 nM
CN1CCC(Oc2ccc(-c3nsc(Nc4ncccc4C(F)(F)F)n3)nc2)CC1 [Compound 55, 3-(5-(1-methyl-piperidin-4-yloxy)pyridin-2-yl)-N-(3-(trifluoromethyl)pyridin-2-yl)-1,2,4-thiadiazol-5-amine] | < 200 nM
CC(C)Oc1ccc(-c2nsc(Nc3ncccc3N(C)C)n2)nc1 [Compound 56, N2-(3-(5-isoprop-oxypyridin-2-yl)-1,2,4-thiadiazol-5-yl)-N3,N3 - dimethyl-pyridine-2,3-diamine] | 500 to 5000 nM
Cc1cccnc1Nc1nc(-c2ccc(C(=O)N3CCN(C)CC3)cn2)ns1 [Compound 57, (4-methyl-piperazin-1-yl)(6-(5-(3-methyl-pyridin-2-ylamino)-1,2,4-thiadiazol-3-yl)pyridin-3-yl) methanone] | 500 to 5000 nM
Cc1cccnc1Nc1nc(-c2ccc(C(=O)N3CCOCC3)cn2)ns1 [Compound 58, (6-(5-(3-methyl-pyridin-2-ylamino)-1,2,4-thiadiazol-3-yl)pyridin-3-yl)(morpholino) methanone] | 200 to 500 nM
CN1CCC(Oc2ccc(-c3nsc(Nc4ncccc4N(C)C)n3)nc2)CC1 [Compound 59, N3,N3-dimethyl-N2-(3-(5-(1-methylpiperidin-4-yloxy)pyridin-2-yl)-1,2,4-thiadiazol-5-yl)pyridine-2,3-diamine] | 500 to 5000 nM
Cc1cccnc1Nc1nc(-c2ccc(C(=O)NCC(F)(F)F)cn2)ns1 [Compound 60, 6-(5-(3-methyl-pyridin-2-ylamino)-1,2,4-thiadiazol-3-yl)-N-(2,2,2-trifluoroethyl) nicotinamide] | 500 to 5000 nM
Cc1cccnc1Nc1nc(-c2ccc(C(=O)N3CCCC3)cn2)ns1 [Compound 61, (6-(5-(3-methyl-pyridin-2-ylamino)-1,2,4-thiadiazol-3-yl)pyridin-3-yl) (pyrrolidin-1-yl)methanone] | 200 to 500 nM
CN1CCC(Oc2ccnc(-c3nsc(Nc4ncccc4C(F)(F)F)n3)c2)CC1 [Compound 62, 3-(4-(1-methyl-piperidin-4-yloxy)pyridin-2-yl)-N-(3-(trifluoromethyl)pyridin-2-yl)-1,2,4-thiadiazol-5-amine] | < 200 nM
Cc1cccnc1Nc1nnc(-c2ccc(OC3CCN(C)CC3)cn2)s1 [Compound 63, 5-(5-(1-methyl-piperidin-4-yloxy)pyridin-2-yl)-N-(3-methylpyridin-2-yl)-1,3,4-thiadiazol-2-amine] | 500 to 5000 nM
Cc1cccnc1Nc1nnc(-c2ccc(OC(C)C)cn2)s1 [Compound 64, 5-(5-isopropoxy-pyridin-2-yl)-N-(3-methyl-pyridin-2-yl)-1,3,4-thiadiazol-2-amine] | 500 to 5000 nM
Cc1cccnc1Nc1nc(-c2cc(OC3CC3)ccn2)ns1 [Compound 65, 3-(4-cycloprop-oxypyridin-2-yl)-N-(3-methyl-pyridin-2-yl)-1,2,4-thiadiazol-5-amine] | 500 to 5000 nM
COc1ccc(-c2nsc(Nc3cc(C(F)(F)F)c(C(C)C)cn3)n2)nc1 [Compound 66, N-(5-isopropyl-4-(trifluoromethyl)pyridin-2-yl)-3-(5-methoxy-pyridin-2-yl)-1,2,4-thiadiazol-5-amine] | 200 to 500 nM
CC(C)c1ccnc(-c2nsc(Nc3ncccc3C(F)(F)F)n2)c1 [Compound 67, 3-(4-isopropyl-pyridin-2-yl)-N-(3-(trifluoromethyl)pyridin-2-yl)-1,2,4-thiadiazol-5-amine] | < 200 nM
COc1ccc(-c2nsc(Nc3ccc(C4CCCC4)cn3)n2)nc1 [Compound 68, N-(5-cyclopentyl-pyridin-2-yl)-3-(5-methoxypyridin-2-yl)-1,2,4-thiadiazol-5-amine] | 200 to 500 nM
Cc1cccnc1Nc1nc(-c2ccc(OC(C)C)cn2)n[nH]1 [Compound 69, N-(3-(5-isopropoxy-pyridin-2-yl)-1H-1,2,4-triazol-5-yl)-3-methylpyridin-2-amine] | 200 to 500 nM
CC(C)Oc1ccc(-c2n[nH]c(Nc3ncccc3C(F)(F)F)n2)nc1 [Compound 70, N-(3-(5-isopropoxy-pyridin-2-yl)-1H-1,2,4-triazol-5-yl)-3-(trifluoromethyl) pyridin-2-amine] | 500 to 5000 nM
Cc1cccnc1Nc1nc(-c2ccc(OC3CCN(C)CC3)cn2)n[nH]1 [Compound 71, 3-methyl-N-(3-(5-(1-methyl-piperidin-4-yloxy)pyridin-2-yl)-1H-1,2,4-triazol-5-yl) pyridin-2-amine] | 500 to 5000 nM
Cc1cccnc1Nc1nc(-c2ccc(OC3CCN(C4CCCC4)CC3)cn2)ns1 [Compound 72, 3-(5-(1-cyclo-pentylpiperidin-4-yloxy)pyridin-2-yl)-N-(3-methylpyridin-2-yl)-1,2,4-thiadiazol-5-amine] | 200 to 500 nM
Cc1cccnc1Nc1nc(-c2ccc(OCC3CC3)cn2)ns1 [Compound 73, 3-(5-(cyclopropyl-methoxy)pyridin-2-yl)-N-(3-methylpyridin-2-yl)-1,2,4-thiadiazol-5-amine] | < 200 nM
CC(C)c1cccnc1Nc1nc(-c2ccc(OC3CC3)cn2)ns1 [Compound 74, 3-(5-cyclopropoxy-pyridin-2-yl)-N-(3-isopropylpyridin-2-yl)-1,2,4-thiadiazol-5-amine] | < 200 nM
Cc1cccnc1Nc1nc(-c2ccc(OC3CCN(CC4CC4)CC3)cn2)ns1 [Compound 75, 3-(5-(1-(cyclopropyl-methyl)piperidin-4-yloxy)pyridin-2-yl)-N-(3-methylpyridin-2-yl)-1,2,4-thiadiazol-5-amine] | 200 to 500 nM
CC(C)Oc1ccc(-c2nsc(Nc3ncccc3C3CC3)n2)nc1 [Compound 76, N-(3-cyclopropyl-pyridin-2-yl)-3-(5-isopropoxy-pyridin-2-yl)-1,2,4-thiadiazol-5-amine] | < 200 nM

From patent US11505548B2, “Heterocyclic compounds and their use for treatment of helminthic infections and diseases” (Celgene Corporation, priority 2019, dated 2022)
